Structures are written as SMILES. The source made the active and inactive calls. The calls are words filed in the database; no cut-off is given here.

Series [1] addresses Histone deacetylase 1 (Homo sapiens, UniProt Q13547). The series is described as follows: Inhibition of full-length recombinant human C-terminal GST tagged HDAC1 expressed in Sf9 insect cells using aminoluciferin peptide substrate at 10 to 100 nM preincubated for 3 hrs followed by substrate addition and measured after 30 mins by HDAC-Glo I/II chemiluminescence assay. As to conditions: dose 10-100 nM, time 3.5 hrs.

Series [2] deals with MCF7. The series is described as follows: Upregulation of TP53INP1 gene expression in human MCF7 cells at 2 uM incubated for 24 hrs by RT-qPCR analysis. It is filed as functional, cell-based. A general note: Quantitative PCR measures a nucleic acid by following its amplification.
Series [3] has as its target Histone deacetylase 4 (Homo sapiens) (UniProt P56524). Kind of series: Inhibition of recombinant human HDAC4 using fluorogenic substrate preincubated for 3 hrs followed by substrate addition and measured after 30 mins by fluorescence analysis. Particulars: time 3.5 hrs.
Series [4] concerns MCF7. Kind of series: Downregulation of E2F1 gene expression in human MCF7 cells at 2 uM incubated for 24 hrs by microarray analysis. It is filed as functional, cell-based.
The target in series [5] is T1, Histone deacetylase (Homo sapiens) (UniProt Q13547+O15379+Q9UBN7+Q92769+Q9UQL6+Q8WUI4+Q9BY41+Q96DB2+P56524+Q9UKV0+Q969S8). As to conditions: MCF7, dose 1.0 µM, time <= 48.0 hrs.
Series [6] can be described thus: Cytotoxicity against human HMEC cells assessed as inhibition of cell viability incubated for 3 days by AlamarBlue based fluorescence analysis. Background: Alamar Blue is a resazurin reagent that responds to reducing activity.
For series [7], the system named is MCF7. The series is described as follows: Downregulation of E2F8 gene expression in human MCF7 cells at 2 uM incubated for 24 hrs by microarray analysis. It is filed as functional, cell-based.
Series [8] has as its system MCF7. The series is described as follows: Upregulation of DDIT4 gene expression in human MCF7 cells at 2 uM incubated for 24 hrs by RT-qPCR analysis. It is filed as functional, cell-based.
Series [9] relates to MCF7. Kind of series: Upregulation of GADD45A gene expression in human MCF7 cells at 2 uM incubated for 24 hrs by RT-qPCR analysis. It counts as functional, cell-based.
Series [10] concerns the target T2, Histone deacetylase 2 (Homo sapiens, UniProt Q92769). Particulars: Sf9, time 60.0 min.
The target of series [11] is T2, Histone deacetylase 2. The series is described as follows: Inhibition of full-length recombinant human C-terminal GST tagged HDAC2 expressed in Sf9 insect cells using aminoluciferin peptide substrate preincubated for 3 hrs followed by substrate addition and measured after 30 mins by HDAC-Glo I/II chemiluminescence assay. It counts as cell-based.
Series [12] has as its target T1, Histone deacetylase (Homo sapiens). As to conditions: MCF7, dose 10.0 µM, time <= 48.0 hrs.
Series [13] has as its system MCF7. Kind of series: Upregulation of ERRF1 gene expression in human MCF7 cells at 2 uM incubated for 24 hrs by RT-qPCR analysis. It is filed as functional, cell-based.
In series [14] the target is T2, Histone deacetylase 2. As to conditions: Sf9, time 60.0 min. This is another data set of the same source.
The target in series [15] is Histone deacetylase 9 (Homo sapiens) (UniProt Q9UKV0). The series is described as follows: Inhibition of recombinant human HDAC9 using fluorogenic substrate preincubated for 3 hrs followed by substrate addition and measured after 30 mins by fluorescence analysis. As to conditions: time 3.5 hrs.
Series [16] deals with T2, Histone deacetylase 2. The series is described as follows: biochemical. It is filed as cell-based, Sf9.
The test system of series [17] is MCF7. The series is described as follows: cells. It is filed as functional. As to conditions: Homo sapiens, time 48 hrs.
Description: Anticancer activity against human MCF7 cells overexpressing HDAC1 and HDAC2 assessed as inhibition of cell growth incubated for 48 hrs by sulforhodamine B assay
For series [18], the system named is MCF7. Kind of series: Upregulation of TES gene expression in human MCF7 cells at 2 uM incubated for 24 hrs by RT-qPCR analysis. It is filed as functional, cell-based.
In series [19] the target is Histone deacetylase 3/NCoR1 (Homo sapiens, UniProt O15379). Kind of series: Inhibition of recombinant human HDAC3/human GST-tagged NCOR1 (397 to 503 residues) using K(Ac)382 peptide substrate preincubated for 3 hrs followed by substrate addition and measured after 30 mins by HDAC-Glo I/II chemiluminescence assay. It is filed as protein-complex assay.
Series [20] has as its target T2, Histone deacetylase 2. As to conditions: Sf9, dose 30-100 nM, time 3.5 hrs.
Series [21] addresses T2, Histone deacetylase 2. The series is described as follows: Inhibition of full-length recombinant human C-terminal GST tagged HDAC2 expressed in Sf9 insect cells using aminoluciferin peptide substrate at 100 nM preincubated for 3 hrs followed by substrate addition and measured after 30 mins by HDAC-Glo I/II chemiluminescence assay. Particulars: time 3.5 hrs.
The test system of series [22] is N2a. Kind of series: Induction of neurite outgrowth in mouse Neuro2a cells assessed as percentage of neurite-bearing cells at 20 to 2000 nM incubated for 48 hrs by microscopy. Particulars: dose 20-2000 nM. It is filed as functional, cell-based.
Series [23] has as its target T2, Histone deacetylase 2. The series is described as follows: Inhibition of full-length recombinant human C-terminal GST tagged HDAC2 expressed in Sf9 insect cells assessed as second order dissociation rate constant (k-2) using Ac-LGK(Ac)-AMC substrate and measured for 60 mins at 2 mins interval by fluorescence analysis.
Series [24] concerns the target T2, Histone deacetylase 2. The series is described as follows: Inhibition of full-length recombinant human C-terminal GST tagged HDAC2 expressed in Sf9 insect cells assessed as second order […] rate constant (k2) using Ac-LGK(Ac)-AMC substrate and measured for 60 mins at 2 mins interval by fluorescence analysis.
Series [25] relates to Mus musculus. Kind of series: Neuroprotective activity in BALB/c mouse assessed as increase in spine density in granule neuron dendrites at 1 uM,SCi administered through osmotic minipumps incubated for 48 hrs by bright-field microscopy. It counts as functional, organism-based.

T2 sequence (Q92769 whole entry): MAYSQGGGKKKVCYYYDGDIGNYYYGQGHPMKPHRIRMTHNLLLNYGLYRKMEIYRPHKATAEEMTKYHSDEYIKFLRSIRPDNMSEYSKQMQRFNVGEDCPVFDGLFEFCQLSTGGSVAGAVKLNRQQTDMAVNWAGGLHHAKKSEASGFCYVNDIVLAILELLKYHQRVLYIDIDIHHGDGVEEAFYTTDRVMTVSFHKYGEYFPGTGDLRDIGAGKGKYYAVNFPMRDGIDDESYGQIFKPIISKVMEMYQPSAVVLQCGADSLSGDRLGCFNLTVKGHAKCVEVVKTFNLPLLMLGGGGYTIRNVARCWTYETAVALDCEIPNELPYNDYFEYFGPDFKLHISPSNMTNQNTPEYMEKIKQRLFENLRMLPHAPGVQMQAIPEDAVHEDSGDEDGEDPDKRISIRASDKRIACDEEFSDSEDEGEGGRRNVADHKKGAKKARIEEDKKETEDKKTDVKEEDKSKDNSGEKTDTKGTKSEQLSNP
Sequence of Histone deacetylase 9 (Homo sapiens) (Q9UKV0 whole entry): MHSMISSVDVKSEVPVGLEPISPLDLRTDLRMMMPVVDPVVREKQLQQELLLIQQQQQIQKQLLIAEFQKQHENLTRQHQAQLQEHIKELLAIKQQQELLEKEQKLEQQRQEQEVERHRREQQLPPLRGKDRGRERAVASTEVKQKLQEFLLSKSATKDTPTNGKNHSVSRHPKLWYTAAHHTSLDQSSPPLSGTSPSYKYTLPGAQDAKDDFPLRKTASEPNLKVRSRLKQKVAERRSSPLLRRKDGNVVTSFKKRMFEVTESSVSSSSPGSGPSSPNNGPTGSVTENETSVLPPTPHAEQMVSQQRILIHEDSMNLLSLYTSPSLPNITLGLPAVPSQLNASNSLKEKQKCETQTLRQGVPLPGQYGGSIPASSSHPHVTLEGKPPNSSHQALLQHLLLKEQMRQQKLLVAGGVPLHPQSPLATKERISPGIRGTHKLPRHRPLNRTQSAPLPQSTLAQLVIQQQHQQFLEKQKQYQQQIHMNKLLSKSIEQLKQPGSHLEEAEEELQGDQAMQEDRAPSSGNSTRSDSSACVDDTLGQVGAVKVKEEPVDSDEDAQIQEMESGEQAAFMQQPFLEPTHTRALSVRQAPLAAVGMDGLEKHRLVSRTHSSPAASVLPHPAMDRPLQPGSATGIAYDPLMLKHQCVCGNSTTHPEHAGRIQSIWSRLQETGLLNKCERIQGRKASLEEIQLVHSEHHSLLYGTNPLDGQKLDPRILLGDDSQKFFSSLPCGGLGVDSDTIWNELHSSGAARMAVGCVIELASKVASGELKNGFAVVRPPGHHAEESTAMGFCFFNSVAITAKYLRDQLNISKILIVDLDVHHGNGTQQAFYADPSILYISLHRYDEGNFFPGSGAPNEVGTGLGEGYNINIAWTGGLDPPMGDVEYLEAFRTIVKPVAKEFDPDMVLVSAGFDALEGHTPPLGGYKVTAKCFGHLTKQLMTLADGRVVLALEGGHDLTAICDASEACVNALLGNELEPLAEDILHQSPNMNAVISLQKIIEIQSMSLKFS
Sequence of Histone deacetylase 3/NCoR1 (O15379 whole entry, the tested form may be a part): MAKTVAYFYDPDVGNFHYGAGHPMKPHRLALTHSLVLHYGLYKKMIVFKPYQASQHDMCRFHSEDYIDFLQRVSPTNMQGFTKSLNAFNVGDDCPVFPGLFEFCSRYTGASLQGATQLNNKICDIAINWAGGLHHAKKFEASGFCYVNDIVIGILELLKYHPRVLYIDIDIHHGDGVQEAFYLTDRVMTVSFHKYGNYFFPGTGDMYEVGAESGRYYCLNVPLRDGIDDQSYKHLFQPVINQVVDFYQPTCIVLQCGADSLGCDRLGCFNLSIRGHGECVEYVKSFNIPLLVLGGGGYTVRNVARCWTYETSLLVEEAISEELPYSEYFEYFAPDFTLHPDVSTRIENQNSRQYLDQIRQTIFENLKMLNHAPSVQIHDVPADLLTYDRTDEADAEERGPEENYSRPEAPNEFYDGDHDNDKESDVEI
Sequence of Histone deacetylase 3/NCoR1 (O75376 whole entry, further chain, the tested form may be a part): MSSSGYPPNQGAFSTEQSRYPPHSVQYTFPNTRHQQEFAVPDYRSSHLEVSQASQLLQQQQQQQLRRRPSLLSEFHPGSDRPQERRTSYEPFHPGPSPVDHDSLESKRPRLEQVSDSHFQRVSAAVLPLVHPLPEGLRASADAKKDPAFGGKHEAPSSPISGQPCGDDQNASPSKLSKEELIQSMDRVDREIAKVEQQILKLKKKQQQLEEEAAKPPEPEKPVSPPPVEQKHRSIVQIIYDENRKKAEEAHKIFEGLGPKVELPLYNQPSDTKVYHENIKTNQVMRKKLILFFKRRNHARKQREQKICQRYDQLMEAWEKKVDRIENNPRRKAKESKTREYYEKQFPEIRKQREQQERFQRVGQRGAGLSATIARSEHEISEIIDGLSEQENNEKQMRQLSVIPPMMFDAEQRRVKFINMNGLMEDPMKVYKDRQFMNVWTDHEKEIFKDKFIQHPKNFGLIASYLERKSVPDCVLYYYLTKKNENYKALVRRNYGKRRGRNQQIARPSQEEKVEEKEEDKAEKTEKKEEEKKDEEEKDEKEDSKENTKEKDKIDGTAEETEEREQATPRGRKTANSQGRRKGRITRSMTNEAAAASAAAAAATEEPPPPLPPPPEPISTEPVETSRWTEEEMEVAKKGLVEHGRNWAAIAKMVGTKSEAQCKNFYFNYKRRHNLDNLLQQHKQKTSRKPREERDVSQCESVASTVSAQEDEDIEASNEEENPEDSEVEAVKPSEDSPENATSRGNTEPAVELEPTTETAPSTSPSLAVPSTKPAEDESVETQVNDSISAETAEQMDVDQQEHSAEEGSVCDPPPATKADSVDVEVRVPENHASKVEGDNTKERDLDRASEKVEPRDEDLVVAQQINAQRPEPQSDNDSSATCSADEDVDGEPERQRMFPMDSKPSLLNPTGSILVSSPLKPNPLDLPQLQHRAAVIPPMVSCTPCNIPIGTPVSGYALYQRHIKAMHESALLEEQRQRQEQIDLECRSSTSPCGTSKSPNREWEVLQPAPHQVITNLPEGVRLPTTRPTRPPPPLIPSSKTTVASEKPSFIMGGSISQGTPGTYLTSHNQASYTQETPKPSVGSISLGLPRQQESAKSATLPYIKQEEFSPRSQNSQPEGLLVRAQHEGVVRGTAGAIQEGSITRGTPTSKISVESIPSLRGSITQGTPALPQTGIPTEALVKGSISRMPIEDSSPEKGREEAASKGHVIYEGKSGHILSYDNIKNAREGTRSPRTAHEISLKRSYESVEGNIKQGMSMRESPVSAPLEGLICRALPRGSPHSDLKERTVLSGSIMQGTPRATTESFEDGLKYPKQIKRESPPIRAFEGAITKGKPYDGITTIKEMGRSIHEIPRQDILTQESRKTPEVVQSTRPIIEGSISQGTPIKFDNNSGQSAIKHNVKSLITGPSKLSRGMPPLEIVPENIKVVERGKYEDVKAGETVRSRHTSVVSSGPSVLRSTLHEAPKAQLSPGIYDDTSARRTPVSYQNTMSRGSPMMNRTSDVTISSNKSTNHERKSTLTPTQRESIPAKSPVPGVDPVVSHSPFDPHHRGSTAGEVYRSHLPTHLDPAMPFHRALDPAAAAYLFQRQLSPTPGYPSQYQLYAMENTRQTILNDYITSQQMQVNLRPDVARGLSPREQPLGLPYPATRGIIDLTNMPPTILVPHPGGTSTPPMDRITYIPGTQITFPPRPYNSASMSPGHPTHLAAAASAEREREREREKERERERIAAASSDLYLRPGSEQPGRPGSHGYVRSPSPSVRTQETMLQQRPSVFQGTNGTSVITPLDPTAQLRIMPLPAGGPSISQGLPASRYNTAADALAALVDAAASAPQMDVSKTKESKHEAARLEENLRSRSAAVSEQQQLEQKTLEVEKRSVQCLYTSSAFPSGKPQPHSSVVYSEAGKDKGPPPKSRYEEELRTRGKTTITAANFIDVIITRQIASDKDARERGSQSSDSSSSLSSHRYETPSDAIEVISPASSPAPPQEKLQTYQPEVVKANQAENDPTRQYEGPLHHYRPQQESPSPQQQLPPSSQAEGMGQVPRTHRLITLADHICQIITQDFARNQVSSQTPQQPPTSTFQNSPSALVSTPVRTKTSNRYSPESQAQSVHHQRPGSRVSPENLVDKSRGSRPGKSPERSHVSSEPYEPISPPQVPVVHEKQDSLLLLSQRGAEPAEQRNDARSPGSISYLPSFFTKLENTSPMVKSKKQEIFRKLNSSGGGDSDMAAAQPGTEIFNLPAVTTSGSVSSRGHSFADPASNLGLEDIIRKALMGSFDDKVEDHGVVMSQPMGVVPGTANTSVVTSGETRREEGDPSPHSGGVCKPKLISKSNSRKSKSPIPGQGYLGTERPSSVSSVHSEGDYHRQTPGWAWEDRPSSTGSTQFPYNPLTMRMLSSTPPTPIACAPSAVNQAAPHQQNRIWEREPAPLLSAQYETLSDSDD
Sequence of Histone deacetylase 1 (Q13547 whole entry): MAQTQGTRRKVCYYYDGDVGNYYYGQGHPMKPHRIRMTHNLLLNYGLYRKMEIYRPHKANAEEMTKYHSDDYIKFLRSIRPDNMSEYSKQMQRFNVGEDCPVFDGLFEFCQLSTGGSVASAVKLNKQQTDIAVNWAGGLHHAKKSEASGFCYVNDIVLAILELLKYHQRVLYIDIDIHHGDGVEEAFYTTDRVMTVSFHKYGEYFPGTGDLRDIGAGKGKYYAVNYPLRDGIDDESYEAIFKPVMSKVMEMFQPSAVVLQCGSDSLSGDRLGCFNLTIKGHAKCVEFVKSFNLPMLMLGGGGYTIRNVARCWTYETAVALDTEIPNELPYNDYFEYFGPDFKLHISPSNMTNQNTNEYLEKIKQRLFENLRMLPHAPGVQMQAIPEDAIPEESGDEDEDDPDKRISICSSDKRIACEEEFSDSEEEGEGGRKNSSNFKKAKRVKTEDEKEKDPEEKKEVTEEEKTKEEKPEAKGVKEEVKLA

`Nc1ccc(-c2cccs2)cc1NC(=O)c1ccc(-c2cn(CCc3ccccn3)nn2)cc1`: the inhibition entry in series [1] is “Active”. In addition, the result in series [2], in series [4], in [7], in series [8], in [9] and in series [13] was Active. In addition, in series [18], the result was Active. The inhibition result in [3] and in series [15] was “inactive” each time. In addition, the TDI entry in [5] and in [12] was “Active” each time. Further, in [6], the IC50 at 3 days is 4.35 µM. In series [10], the Kdiss is 8.33e-05 s⁻¹. Besides, the half-inhibitory concentration (IC50) in series [11] is 0.017 µM; in series [19], greater than 10 µM. This compound gave a ka in [14] of 8830 M⁻¹ s⁻¹. This compound showed an inhibitory constant (Ki) in [16] of 0.0098 µM. The compound also returned a 50% growth inhibitory concentration (GI50) in series [17] of 52.5 µM. Further, the inhibition result in [20] was “Dose-Dependent Effect”; in series [21] it was 81%.

Take `Nc1ccc(-c2cccs2)cc1NC(=O)c1ccc(-c2cn(C[S+]([O-])c3ccccc3)nn2)cc1` (stereo not given): in series [1], the inhibition result is “Active”. Also, the result in series [2], in series [4], in series [7], in series [8], in series [9] and in series [13] was Active. Moreover, the outcome in series [18] was Active. Moreover, the inhibition result in series [3] and in [15] was “inactive” each time. In addition, the TDI result in series [5] and in series [12] was “Active” in each case. Moreover, in series [6], the IC50 at 3 days was greater than 10 µM. This compound returned a Kdiss in [10] of 0.000117 s⁻¹. In addition, the IC50 in series [11] is 0.019 µM; in [19] it was greater than 10 µM. Moreover, the ka in [14] worked out at 5330 M⁻¹ s⁻¹. For the same compound, in [16], the affinity corresponds to a Ki of 0.022 µM. The same compound displayed a GI50 in [17] of 1.86 µM. The inhibition result in series [20] is “Dose-Dependent Effect”; in [21] it was 87%.

On to `Nc1ccc(-c2cccs2)cc1NC(=O)c1ccc(-c2cn(CS(=O)(=O)c3ccccc3)nn2)cc1`, for which, in series [1], the inhibition result was “Active”. The outcome in series [22], in series [2], in series [4], in [7], in series [8] and in series [9] was Active. The outcome in series [13], in series [18] and in [25] was Active. For the same compound, the inhibition entry in [3] and in [15] was “inactive” in each case. Also, the TDI result in [5] and in [12] was “Active” throughout. Moreover, the half-inhibitory concentration (IC50) at 3 days in series [6] came out at 9.85 µM. The IC50 in series [11] was 0.068 µM; in [19], greater than 10 µM. Moreover, in [23], the Kdiss was 3.33e-05 s⁻¹. The Ki in series [16] stood at 0.0062 µM. In series [17], this compound registered a GI50 of 0.043 µM. For the same compound, the ka in [24] came out at 683 M⁻¹ s⁻¹. Besides, the inhibition entry in series [20] is “Dose-Dependent Effect”; in series [21], 77%.

What is called inhibition is the relative decrease from the control value, in per cent. One may read the IC50 as the concentration at which inhibition is half-maximal. The Ki is the equilibrium dissociation constant of an inhibitor or competing ligand from its target. The GI50 is the concentration that inhibits growth by half.

These data come from ChEMBL document CHEMBL5390237, “Discovery of Selective Histone Deacetylase 1 and 2 Inhibitors: Screening of a Focused Library Constructed by Click Chemistry, Kinetic Binding Analysis, and Biological Evaluation” (J Med Chem, 2023).
